Source: PMC5469811, “Identification of GXXXXG motif in Chrysophsin-1 and its implication in the design of analogs with cell-selective antimicrobial and anti-endotoxin activities” (Scientific Reports, 2017)
≈ marks a conversion by molar mass, not a printed value. Residues, ends and D or L forms follow the SMILES beside them.

Legend:
Cryptococcus neoformans = assay: microbe, parasite or virus in culture; type: cell-based; conditions: 72 h; read-out: Minimum inhibitory concentration (MIC)
Procedure: (§1) The anti- fungal activity of peptides was performed according to the standard micro broth dilution technique as per NCCLS guidelines. These plates were incubated in a moist chamber at 35 °C, and an absorbance at 492 nm was recorded on a VersaMax microplate reader after 48 h for C. albicans ATCC 10231 and C. parapsilosis ATCC 22019 and 72 h for C. neoformans.

[1] = tested on: Candida parapsilosis (ATCC 22019); assay: microbe, parasite or virus in culture; type: cell-based; conditions: ATCC 22019, 48 h; read-out: Minimum inhibitory concentration (MIC)
Procedure: as §1

[2] = tested on: Candida albicans (ATCC 10231); assay: microbe, parasite or virus in culture; type: cell-based; conditions: ATCC 10231, 48 h; read-out: Minimum inhibitory concentration (MIC)
Procedure: as §1

E. coli ATCC 25922 = assay: Synergy with conventional antibiotics, checkerboard titration; type: cell-based, Escherichia coli
Method in brief: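 Checkerboard of 2-fold serial dilutions of peptide and antibiotic combined with log-phase bacteria, incubated 24 h at 37 °C. FIC index computed from combination versus single-agent MICs: <0.5 synergy, 0.5–1.0 additive, 1.0–4.0 indifferent, >4.0 antagonism.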

BALB/c mice = assay: In vivo toxicity of peptide alone; parameters: species or system mouse; conditions: peptide alone 5 and 10 mgKg−1 i.p., seven days, five animals
Procedure: For survival assay, mice were challenged intraperitoneally with LPS at a lethal dose of 15 mgKg^−1 E. coli 0111:B4[5]. Control mice were injected with an equal volume of PBS. G13P-Chr-1 at a single dose of 5 mgKg^−1 was injected in the mice groups that were already administered with 15 mgKg^−1 of LPS. Each group contained five mice. The mortality of mice was monitored up to 7 days and weight change was monitored every day. The peptide G13P-Chr-1 only was also injected in two groups of mice at 5 mgKg^−1 and 10 mgKg^−1 to check any mortality in mice by peptide only treatment.

CC[C@H](C)[C@H](NC(=O)[C@H](C)NC(=O)[C@H](CCCCN)NC(=O)[C@@H]1CCCN1C(=O)[C@H](C)NC(=O)[C@H](Cc1c[nH]cn1)NC(=O)[C@@H](NC(=O)[C@H](C)NC(=O)CNC(=O)[C@H](CCCCN)NC(=O)[C@@H](NC(=O)[C@H](CC(C)C)NC(=O)[C@H](Cc1c[nH]c2ccccc12)NC(=O)CNC(=O)[C@H](Cc1ccccc1)NC(=O)[C@@H](N)Cc1ccccc1)[C@@H](C)CC)[C@@H](C)CC)C(=O)N[C@@H](Cc1c[nH]cn1)C(=O)NCC(=O)N[C@@H](CC(C)C)C(=O)N[C@H](C(=O)N[C@@H](Cc1c[nH]cn1)C(=O)N[C@@H](CCCNC(=N)N)C(=O)N[C@@H](CCCNC(=N)N)C(=O)N[C@@H](CCCNC(=N)N)C(=O)N[C@@H](Cc1c[nH]cn1)C(N)=O)[C@@H](C)CC [Peptide G13P-Chr-1] (H-FFGWLIKGAIHAPKAIHGLIHRRRH-NH2)
MIC (Cryptococcus neoformans): 13.6 µM (≈ 39.9 µg/mL) | MIC [1]: 6.8 µM (≈ 19.9 µg/mL) | MIC [2]: 13.6 µM (≈ 39.9 µg/mL) | interaction of peptide with chloramphenicol (by FICI) (E. coli ATCC 25922): synergy (FICI < 0.5 is considered to indicate synergy) | survival of mice (in vivo cytotoxicity) (BALB/c mice): 100%
